One series concerns CCRF-CEM cells. The series can be described thus: Flow cytometry: annexin V/DAPI apoptosis and bead-based absolute cell count, CCRF-CEM. Details: species or system human.
For another series, the system named is SUPT11 cells. The series is described as follows: Flow cytometry: annexin V/DAPI apoptosis and bead-based absolute cell count, SUPT11. (In general: Flow cytometry measures light scatter and fluorescence of single cells or particles in a stream.)
Series [1] concerns PDX-derived cells (CD45+ bulk).
Series [2] relates to leukemia initiating cells (LICs, CD45+, CD7+, CD19-, CD34+).
The next series relates to PF382 cells. The series can be described thus: Flow cytometry: annexin V/DAPI apoptosis and bead-based absolute cell count, PF382. Details: species or system human.
The subject of series [3] is LOUCY cells. The series is described as follows: Western blot analysis in LOUCY cells. As to conditions: combination = Compound I + Compound II. It counts as cell-based, human. The source says:
Membranes were probed with specific antibodies.
(In general: In western blotting, separated proteins are transferred to a membrane and probed.)

The subject of another series is MOLT4 cells. The series can be described thus: Flow cytometry: annexin V/DAPI apoptosis and bead-based absolute cell count, MOLT4. As to conditions: MOLT4, single agent, 5 days.
The next series has as its system ALL-SIL cells. The series is described as follows: Flow cytometry: annexin V/DAPI apoptosis and bead-based absolute cell count, ALL-SIL. On the set-up: species or system human. How it is done: (§1) Combination index and IC50 were determined using Calcusyn (BIOSOFT, Cambridge, UK).
The test system of series [4] is LOUCY cells. The series can be described thus: Flow cytometry: annexin V/DAPI apoptosis and bead-based absolute cell count, LOUCY. Details: species or system human. As to conditions: for IC50: Homo sapiens. How it is done:
as §1

For another series, the system named is MOLT16 cell line. The series can be described thus: Flow cytometry: annexin V/DAPI apoptosis and bead-based absolute cell count, MOLT16. As to conditions: MOLT16, single agent, 5 days. On the set-up: species or system human.
The next series relates to JURKAT cells. The series can be described thus: Flow cytometry: annexin V/DAPI apoptosis and bead-based absolute cell count, JURKAT. As to conditions: single agent, 5 days.

Entries after “also recorded” stand apart in the source; their conditions may differ. Read-outs that look alike come from different tables or passages of the source.

Procedure for CCRF-CEM cells: (§2) Cells were re-suspended in PBS containing CountBright beads (Invitrogen #C36950) to allow for measurement of the absolute cell number. Half-maximal inhibitory concentrations (IC50) was calculated using CalcuSyn software (BIOSOFT, Cambridge, UK).
(§3) Combination index (CI) and IC50 were determined using Calcusyn (BIOSOFT, Cambridge, UK).
Procedure for JURKAT cells: as §2
Procedure for MOLT16 cell line: as §2, §3
Procedure for MOLT4 cells: as §2
Procedure for PF382 cells: as §2, §3
Procedure for SUPT11 cells: as §2, §3

On to `C[C@@H]1C[C@H]2[C@@H]3CCC4=CC(=O)C=C[C@]4(C)[C@@]3(F)[C@@H](O)C[C@]2(C)[C@@]1(O)C(=O)CO` [DEX, dexamethasone, reference compound], for which the cell death with CCRF-CEM cells (CCRF-CEM (DEX-resistant), combination = Compound I:DEX 1:1) is given as 20+3%. Besides, the EC50 is approximately 2000 nM in the series with SUPT11 cells (Homo sapiens, SUPT11, read-out: ED50, SUPT11 cells, DEX treatment alone) and 2000 nM in the series with SUPT11 cells (Homo sapiens, SUPT11, read-out: ED50, Table 2, SUPT11 cells, Combination = DEX + Compound I 1:1). Moreover, the cytotoxic effect in series [1] is on record as 58±2%; in series [2], 62±2%.

Turning to `C[C@@H]1CN(CC(=O)N2CC(C)(C)c3nc(CO)c(Cc4ccc(F)cc4)cc32)[C@@H](CN2CCOC[C@H]2C)CN1` [Compound I, 1-(6-(4-fluorobenzyl)-5-(hydroxymethyl)-3,3-dimethyl-2,3-dihydro-1H-pyrrolo [3,2-b]pyridin-1-yl)-2-((2R,5R)-5-methyl-2-(((R)-3-methylmorpholino)methyl)piperazin-1-yl)ethan-1-one], the “sensitivity to Compound I” value in the series with PF382 cells (PF382, single agent, 5 days) is given as “least sensitive”; with CCRF-CEM cells (CCRF-CEM, single agent, 5 days), “moderate sensitivity”; in the series on MOLT4 cells, “least sensitive”; in the series on ALL-SIL cells (ALL-SIL, single agent, 5 days) it was “moderate sensitivity”; in the series with MOLT16 cell line, “least sensitive”; in the series with JURKAT cells, “least sensitive”. Moreover, the apoptosis induction entry in the series on PF382 cells (PF382, single agents or combination Compound I:DEX 1:1) is recorded as “no apoptosis induction”. In addition, the IC50 (in general, the concentration needed to halve the response being measured) worked out at 17800 nM in the series with CCRF-CEM cells (Homo sapiens, CCRF-CEM, 120 h); 11800 nM with ALL-SIL cells (Homo sapiens, 120 h); 190 nM in the series on LOUCY cells [4] (120 h, Table 1, Loucy, Compound I single agent, 5 days); 190 nM in the series on LOUCY cells [4] (Table 4, LOUCY cells, Combination = Compound II:Compound I 1:10); 309 nM with SUPT11 cells (Homo sapiens, SUPT11, 120 h, Table 1, SUPT11, Compound I single agent, 5 days); 11.7 nM with SUPT11 cells (Homo sapiens, SUPT11, Table 2, SUPT11 cells, Combination = DEX + Compound I 1:1). Moreover, the half-maximal inhibitory concentration (IC50) in the series on SUPT11 cells (Table 1, SUPT11, Compound I single agent, 5 days) is 310 nM. Also, the “PARP expression (Western blot)” value in the series on LOUCY cells [3] is given as “decreased expression”. In the series on LOUCY cells [3], the “cIAP2 expression (Western blot)” value is on record as “decreased expression; also recorded: decrease”. In the series on LOUCY cells [3], the “cleaved caspase 7 (Western blot)” value was “increase”.

Turning to `CC1(C)CCC(CN2CCN(c3ccc(C(=O)NS(=O)(=O)c4ccc(NCC5CCOCC5)c([N+](=O)[O-])c4)c(Oc4cnc5[nH]ccc5c4)c3)CC2)=C(c2ccc(Cl)cc2)C1` [Compound II, 2-((1H-pyrrolo[2,3-b]pyridin-5-yl)oxy)-4-(4-((4′-chloro-5,5-dimethyl-3,4,5,6-tetrahydro-[1,1′-biphenyl]-2-yl)methyl)piperazin-1-yl)-N-((3-nitro-4-(((tetrahydro-2H-pyran-4-yl)methyl)amino)phenyl)sulfonyl)benzamide, reference compound], the cell death in the series on LOUCY cells [4] (LOUCY, combination = Compound II:Compound I 1:10) was 27+0.9%.
